In patent US5652232A, “Benzolactam derivatives” (Shionogi & Co., Ltd., priority 1993, dated 1997):
≈ marks a conversion by molar mass, not a printed value. Read-outs that look alike come from different tables or passages of the source.

Assays:
[1] = Cytotoxicity against MT-4 cells (MTT); assay type: cell-based; conditions: human
Procedure: (§1) (A) A human T-cell strain MOLT-4 clone 8, persistently infected with HIV (HIV-1IIIB strain), was cultured in RPMI-1640 medium supplemented with 10% fetal bovine serum. The culture supernatant was then filtered and stored at -80° C. after a measurement of viral titer. Each of test compounds was diluted with the above culture medium so as to be a predetermined concentration, and 50 μl of the solution was added to each of wells of a 96-well microtiter plate. Then, after the addition of each 100 μl of MT-4 cell suspension (3.5×10^4 cells) to the well, the above-prepared HIV-containing supernatant was diluted with the above medium and 50μl of the dilution (60 plaque forming units) was added to each well.
(§2) (B) After incubation of the 96-well microtiter plate in a CO2 -incubator at 37° C. for 5 days, 30 μl of MTT [3-(4,5-dimethylthiazole-2-yl)-2,5-diphenyltetrazorium bromide, 5 mg/ml, PBS] was added to each well and incubation was continued for 1 hour.
(§3) Cells having survived reduced MTT to precipitate formazan. 150 μl of culture supernatant was removed from each well and 150 μl of a solubilizing solution (10% Triton X-100 and isopropanol supplemented with 0.4% (V/V) HCl) was added to each well and the plate was shaken by using a plate mixer to dissolve the formazan. The dissolved formazan was measured by O.D. at 540 nm and the results were compared with referenced control. EC50 (μg/ml) was defined as a concentration of the compound that achieved 50% inhibition of cytotoxicity by the virus. DMSO was used as a solvent and the tested concentrations were 0.0001-10 μg/ml.
Cytotoxicities of the test compounds against the MT-4 cells were measured in the same manner as step (A) of the above-described antiviral activity test, provided that 50 μl of the culture medium was added to each well instead of the HIV-containing supernatant (virus solution), which was followed by the same treatment as step (B). CC50 (μg/ml) was defined as a concentration of test compound inducing 50% cytotoxicity.

[2] = test system: HIV (HIV-1IIIB strain); assay: Antiviral activity: inhibition of HIV cytotoxicity in MT-4 cells (MTT); assay type: cell-based; conditions: Human immunodeficiency virus 1, MT4, 120 h, read-out: EC50: concentration of the compound that achieved 50% inhibition of cytotoxicity by the virus
Procedure: as §1, §2, §3

[3] = MT-4 cells, no virus, 5 days at 37° C., MTT, read-out: CC50: concentration of test compound inducing 50% cytotoxicity

Row | SMILES | CC50 at 120 h [1, 3] | EC50 [2] | CC50 at 120 h ([1]; mt-4 cells)
1 | CCCCCCCCCCc1ccc2c(c1)N(C)[C@@H](C(C)C)C(=O)N[C@H](CO)C2 (relative stereo) [(±)-BL-V8-310] | 1 µg/mL (≈ 2.48 µM) | 0.001 to 0.01 µg/mL (≈ 0.00248 to 0.0248 µM) | –
2 | CCCCCCCCCCc1ccc2c(c1)N(C)[C@@H](C(C)C)C(=O)N[C@@H](CO)C2 (relative stereo) [(±)-epi-BL-V8-310] | 1 µg/mL (≈ 2.48 µM) | 0.13 µg/mL (≈ 0.323 µM) | –
3 | CC(C)[C@H]1C(=O)N[C@H](CO)Cc2cc3c(cc2N1C)C(C)(C)CCC3(C)C (relative stereo) [BL-V8-23T] | 1 to 10 µg/mL (≈ 2.68 to 26.8 µM) | – | –
4 | CC(C)[C@H]1C(=O)N[C@H](CO)Cc2ccccc2N1C (relative stereo) [BL-V8] | 10 µg/mL (≈ 38.1 µM) | 0.1 to 1 µg/mL (≈ 0.381 to 3.81 µM) | –
5 | CCCCCCCCCCc1ccc2c(c1)N(C)[C@@H](C(C)C)C(=O)N[C@H](CO)CC2 (relative stereo) [BL-V9-310] | 10 µg/mL (≈ 24 µM) | 2.5 to 5 µg/mL (≈ 6 to 12 µM) | –
6 | CC(C)[C@H]1C(=O)N[C@H](CO)CCc2ccccc2N1C (relative stereo) [BL-V9] | > 10 µg/mL | > 10 µg/mL | –
7 | CC(C)[C@H]1C(=O)N[C@H](CO)CCCc2ccccc2N1C (relative stereo) [BL-V10] | – | > 10 µg/mL | > 10 µg/mL
8 | CC(C)[C@@H]1C(=O)N[C@H](CO)Cc2cc3c(cc2N1C)C(C)(C)CCC3(C)C (relative stereo) [epi-BL-V8-23T] | 1 to 10 µg/mL (≈ 2.68 to 26.8 µM) | – | –
9 | CC(C)[C@H]1C(=O)N[C@@H](CO)Cc2ccccc2N1C (relative stereo) [epi-BL-V8] | 10 µg/mL (≈ 38.1 µM) | 2.5 to 5 µg/mL (≈ 9.53 to 19.1 µM) | –
10 | CCCCCCCCCCc1ccc2c(c1)N(C)[C@H](C(C)C)C(=O)N[C@H](CO)CC2 (relative stereo) [epi-BL-V9-310] | 5 to 10 µg/mL (≈ 12 to 24 µM) | 0.3 µg/mL (≈ 0.72 µM) | –
11 | CC(C)[C@H]1C(=O)N[C@@H](CO)CCc2ccccc2N1C (relative stereo) [epi-BL-V9] | > 10 µg/mL | > 10 µg/mL | –
12 | CC(C)[C@H]1C(=O)N[C@@H](CO)CCCc2ccccc2N1C (relative stereo) [epi-BL-V10] | – | > 10 µg/mL | > 10 µg/mL
13 | CCCCCCCCCCc1ccc2c(c1)N(C)[C@H](C(C)C)C(=O)N[C@@H](CO)C2 [(+)-BL-V8-310] | 5 to 10 µg/mL (≈ 12.4 to 24.8 µM) | 0.05 to 0.1 µg/mL (≈ 0.124 to 0.248 µM) | –
14 | CCCCCCCCCCc1ccc2c(c1)N(C)[C@H](C(C)C)C(=O)N[C@H](CO)C2 [(+)-epi-BL-V8-310] | 5 to 10 µg/mL (≈ 12.4 to 24.8 µM) | 0.1 µg/mL (≈ 0.248 µM) | –
15 | CCCCCCCCCCc1ccc2c(c1)N(C)[C@@H](C(C)C)C(=O)N[C@H](CO)C2 [(-)-BL-V8-310] | 5 to 10 µg/mL (≈ 12.4 to 24.8 µM) | 0.003 µg/mL (≈ 0.00745 µM) | –
16 | CCCCCCCCCCc1ccc2c(c1)N(C)[C@@H](C(C)C)C(=O)N[C@@H](CO)C2 [(-)-epi-BL-V8-310] | 2.5 to 5 µg/mL (≈ 6.21 to 12.4 µM) | 0.16 µg/mL (≈ 0.397 µM) | –
